According to patent US5128331A, “Method for lowering plasma lipid levels or blood pressure” (priority 1988, dated 1992):
Entries after “also recorded” stand apart in the source; their conditions may differ. Where two headings read alike, the source gives them in different places.

Tests used:
Format in all cases: in vivo
[1] = system: spontaneously hypertensive rat (SHR); assay: Oral hypotensive activity in spontaneously hypertensive rats (SHR); conditions: for Percent change in blood pressure: 2 hours post dose, Table 5
Protocol: The spontaneously hypertensive rat (SHR) is a well established animal model of human arterial hypertension.
In screening experiments various gem-diphosphonates were dissolved in Tween-80 and administered orally to SH rats. Blood pressure was monitored hourly using a tailcuff method.

[2] = system: mice of the OF1 strain; assay: Hypolipidemic activity: plasma cholesterol and plasma triglycerides in mice fed compound in chow; conditions: for change in vivo at 180 mg/kg: Mus musculus, feed or water, 240 h
Protocol: With the goal of finding new drugs which might be hypolipidemic, the new diphosphonates described in this patent application were administered orally to mice. This rodent species has plasma lipid level relatively close to man (generally greater than 150 mg/dl). For example, in mice receiving a normal diet the plasma cholesterol and triglyceride levels are in the range of 100 mg/dl, whereas for rat the comparative values are close to 50 mg/dl.
In every screening experiment, 30 mice of the OF1 strain weighing 25 to 35 g were divided into 5 groups of 6 animals each. Four groups received the compounds to be tested, or the reference drugs, the fifth group served as control. Compounds were dissolved in diethyl ether, and solution was added to the pelleted food and the ether was evaporated.
All compounds were tested at the final concentration of 0.1% in animal chow, equivalent to a daily intake of about 180 mg/kg. This diet was fed for 10 days, then after an overnight fasting the animals were sacrified by decapitation under ether anesthesia. Blood samples were collected in EDTA containing tubes.
Plasma cholesterol and plasma triglycerides were measured by enzymatic methods (Ames kit No. 6376 and No. 6630).

[3] = system: rat paw oedema; assay: Anti-inflammatory activity: kappa carrageenan rat paw oedema model; conditions: for Inhibition of rat right hind paw volume increase, % Change from control: 4 hours post oedema induction, test compounds 100 mg/kg, indomethacin 30 mg/kg by gavage 1 hour prior; for anti-inflammatory activity (in words): rat paw oedema, 4 hours
Protocol: The effect of four selected diphosphates was investigated on the inflammatory response to kappa carrageenan in the rat paw oedema model. Eight male rats were employed per group. Oedema was induced in the right hind paw of each animal by a single injection into the plantar aponeurosis of 0.1 ml of a 1% w/v of kappa carrageena solution dissolved in 0.9% NaCl. The test compounds (100 mg/kg) and reference drug (indomethacin 30 mg/kg) were administered by gavage 1 hour prior to induction of oedema by carrageanan injection.
The volume of the right paw was measured for each animal at 0, 1, 2.5 and 4 hours after carrageenan injection (only 4 hour values are reported.

[4] = read-out: Cholesterol (% control)
[5] = read-out: Triglycerides (% control)
[6] = mice, 0.1% in animal chow (about 180 mg/kg daily), 10 days, Table 3, given as change from control, read-out: Cholesterol (% control)
[7] = mice, 0.1% in animal chow (about 180 mg/kg daily), 10 days, Table 3, given as change from control, read-out: Triglycerides (% control)

CC(C)OP(=O)(OC(C)C)C(Cc1cc(C(C)(C)C)c(O)c(C(C)(C)C)c1)P(=O)(OC(C)C)OC(C)C [Compound 6]
hypotensive potency compared with reference drugs (in words) [1]: as potent as the reference drugs
Percent change in blood pressure [1]: -64%
change in vivo at 180 mg/kg [2, 4]: -37%
change in vivo at 180 mg/kg [2, 5]: -34%
hypocholesterolemic activity (in words) ([2]; mice, 0.1% in chow, 10 days): hypocholesterolemic
hypotriglyceridemia (in words) ([2]; mice, 0.1% in chow, 10 days): significant hypotriglyceridemia

CCOP(=O)(OCC)C(Cc1cc(C(C)CC)c(O)c(C(C)CC)c1)P(=O)(OCC)OCC (stereo not drawn) [Compound 3]
Percent change in blood pressure [1]: -20%
change in vivo at 180 mg/kg [2, 4]: -19%
change in vivo at 180 mg/kg [2, 5]: -46%
decreased plasma triglycerides by ([2]; mice, 0.1% in chow, 10 days): more than 44%
hypocholesterolemic activity (in words) ([2]; mice, 0.1% in chow, 10 days): hypocholesterolemic
hypotriglyceridemia (in words) ([2]; mice, 0.1% in chow, 10 days): significant hypotriglyceridemia

CCOP(=O)(OCC)C(=Cc1cc(C(C)(C)C)c(O)c(C(C)(C)C)c1)P(=O)(OCC)OCC [Compound 33, Tetraethyl 2-(3,5-ditertiarybutyl-4-hydroxyphenyl)-ethenylidene-1,1-diphosphonate]
Inhibition of rat right hind paw volume increase, % Change from control [3]: -5.8 % Change from control
change in vivo at 180 mg/kg [2, 4]: -40%
change in vivo at 180 mg/kg [2, 5]: -21%
hypocholesterolemic activity (in words) ([2]; mice, 0.1% in chow, 10 days): hypocholesterolemic
hypocholesterolemic potency (plasma cholesterol change) ([2]; mice, 0.1% in chow, 10 days): -40%
hypotriglyceridemia (in words) ([2]; mice, 0.1% in chow, 10 days): significant hypotriglyceridemia

COc1ccc([C@@H]2Sc3ccccc3N(CCN(C)C)C(=O)[C@@H]2OC(C)=O)cc1 [Diltiazem, reference compound]
Percent change in blood pressure [1]: -38%

CCCCOP(=O)(OCCCC)C(Cc1cc(C(C)(C)C)c(O)c(C(C)(C)C)c1)P(=O)(OCCCC)OCCCC [Compound 7, Tetrabutyl 2-(3,5-ditertiary-4-hydroxyphenyl)-ethylidene-1,1-diphosphonate]
hypotensive potency compared with reference drugs (in words) [1]: as potent as the reference drugs
Percent change in blood pressure [1]: -30%
change in vivo at 180 mg/kg [2, 4]: -23%
change in vivo at 180 mg/kg [2, 5]: -15%
hypocholesterolemic activity (in words) ([2]; mice, 0.1% in chow, 10 days): hypocholesterolemic
hypotriglyceridemia (in words) ([2]; mice, 0.1% in chow, 10 days): significant hypotriglyceridemia

CC(C)(C)c1cc(C=C(P(=O)(O)O)P(=O)(O)O)cc(C(C)(C)C)c1O [Compound 36]
Inhibition of rat right hind paw volume increase, % Change from control [3]: -25.0 % Change from control
anti-inflammatory activity (in words) [3]: significant inhibitory activities
change in vivo at 180 mg/kg [2, 6]: -9%
change in vivo at 180 mg/kg [2, 7]: -5%

CCCCOP(=O)(OCCCC)C(Cc1cc(C(C)(C)C)c(O)c(C(C)(C)C)c1)P(=O)(OCC)OCC (stereo not drawn) [Compound 18]
hypotensive potency compared with reference drugs (in words) [1]: as potent as the reference drugs
Percent change in blood pressure [1]: -41%
change in vivo at 180 mg/kg [2, 4]: -31%
change in vivo at 180 mg/kg [2, 5]: 60%
hypocholesterolemic activity (in words) ([2]; mice, 0.1% in chow, 10 days): hypocholesterolemic

CCOP(=O)(OCC)C(Cc1cc(C(C)(C)C)c(O)c(C(C)(C)C)c1)P(=O)(OCC)OCC [Compound 4, Tetraethyl 2-(3,5-ditertiarybutyl-4-hydroxyphenyl)-ethylidene-1,1-diphosphonate]
hypotensive potency compared with reference drugs (in words) [1]: as potent as the reference drugs
Percent change in blood pressure [1]: -34%
Inhibition of rat right hind paw volume increase, % Change from control [3]: +1.5 % Change from control
change in vivo at 180 mg/kg [2, 4]: -12%
change in vivo at 180 mg/kg [2, 5]: -1%
hypocholesterolemic activity (in words) ([2]; mice, 0.1% in chow, 10 days): hypocholesterolemic

COc1ccc2c(c1)c(CC(=O)O)c(C)n2C(=O)c1ccc(Cl)cc1 [Indomethacin, reference compound]
Inhibition of rat right hind paw volume increase, % Change from control [3]: -92.3 % Change from control
anti-inflammatory activity (in words) [3]: prevented completely the increase in paw volume

CC(C)OP(=O)(OC(C)C)C(Sc1cc(C(C)(C)C)c(O)c(C(C)(C)C)c1)P(=O)(OC(C)C)OC(C)C [Compound 22]
change in vivo at 180 mg/kg [2, 4]: -21%
change in vivo at 180 mg/kg [2, 5]: -37%
hypocholesterolemic activity (in words) ([2]; mice, 0.1% in chow, 10 days): hypocholesterolemic
hypotriglyceridemia (in words) ([2]; mice, 0.1% in chow, 10 days): significant hypotriglyceridemia

CCOP(=O)(OCC)C(Cc1cc2c(cc1Cl)OCO2)P(=O)(OCC)OCC [Compound 13, Tetraethyl 2-(3,4-methylenedioxy-6-chlorophenyl)-ethylidene-1,1-diphosphonate]
change in vivo at 180 mg/kg [2, 4]: -5%
change in vivo at 180 mg/kg [2, 5]: 38%

CCOP(=O)(OCC)C(=CC=Cc1cc(C(C)(C)C)c(O)c(C(C)(C)C)c1)P(=O)(OCC)OCC [Compound 43, Tetraethyl 4-(3,5-ditertiarybutyl-4-hydroxyphenyl)-1,3-butadienylidene-1,1-diphosphonate]
change in vivo at 180 mg/kg [2, 4]: -5%
change in vivo at 180 mg/kg [2, 5]: -14%

CC(C)(C)c1cc(CC(P(=O)(O)O)P(=O)(O)O)cc(C(C)(C)C)c1O [Compound 8, 2-(3,5-ditertiarybutyl-4-hydroxyphenyl)-ethylidene-1,1-diphosphonic acid]
Inhibition of rat right hind paw volume increase, % Change from control [3]: -54.2 % Change from control
anti-inflammatory activity (in words) [3]: significant inhibitory activities; also recorded: anti-inflammatory
change in vivo at 180 mg/kg [2, 6]: -2%
change in vivo at 180 mg/kg [2, 7]: 19%
